ChEMBL document CHEMBL1201862, “PubChem BioAssay data set” (2004)
Activity calls are given as the source filed them.

Tests used:
H9c2 = experiment: cells; format: functional, cell-based; settings: Rattus norvegicus, H9c2, Myocardium;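 further: confirmatory concentration-response retest of ultra-high-throughput screening hits for modulation of myocardial damage; cell death induced by hydrogen peroxide oxidative stress; compound pretreatment for 60 min then peroxide exposure for 2 h; potency is for protecting the cells against peroxide damage rather than for killing them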
Protein skinhead-1 = target: T1, Protein skinhead-1 (Caenorhabditis elegans, UniProt P34707); format: functional
T1 sequence (P34707 whole entry): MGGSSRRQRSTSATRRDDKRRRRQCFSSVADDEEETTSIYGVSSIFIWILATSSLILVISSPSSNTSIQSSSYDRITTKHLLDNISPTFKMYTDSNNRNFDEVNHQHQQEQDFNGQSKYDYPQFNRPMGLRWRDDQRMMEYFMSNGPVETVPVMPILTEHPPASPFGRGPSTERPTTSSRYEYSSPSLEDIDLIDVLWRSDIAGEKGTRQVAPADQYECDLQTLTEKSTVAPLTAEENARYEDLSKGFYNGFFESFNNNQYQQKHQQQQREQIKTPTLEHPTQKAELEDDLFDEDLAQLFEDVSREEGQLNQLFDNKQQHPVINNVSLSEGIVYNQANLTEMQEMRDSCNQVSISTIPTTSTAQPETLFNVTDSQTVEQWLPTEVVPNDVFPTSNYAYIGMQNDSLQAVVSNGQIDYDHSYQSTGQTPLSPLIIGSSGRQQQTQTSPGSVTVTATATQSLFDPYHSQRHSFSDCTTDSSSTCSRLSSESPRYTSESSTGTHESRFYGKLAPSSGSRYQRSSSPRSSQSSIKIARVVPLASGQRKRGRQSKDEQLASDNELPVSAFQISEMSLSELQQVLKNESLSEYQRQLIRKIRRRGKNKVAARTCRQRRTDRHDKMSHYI

[1] = target: T2, Heat shock factor protein 1 (Mus musculus, UniProt P38532); experiment: decrease of HSF1-responsive luciferase luminescence – cell-based, NIH3T3, dose retest, confirmation (AID 2382); format: functional;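 further: NIH3T3 fibroblasts with HSF1-driven luciferase reporter stressed by proteasome inhibitor MG132; luminescence from HSF1-driven luciferase expression after 8 hours of MG132 stress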
T2 sequence (P38532 whole entry): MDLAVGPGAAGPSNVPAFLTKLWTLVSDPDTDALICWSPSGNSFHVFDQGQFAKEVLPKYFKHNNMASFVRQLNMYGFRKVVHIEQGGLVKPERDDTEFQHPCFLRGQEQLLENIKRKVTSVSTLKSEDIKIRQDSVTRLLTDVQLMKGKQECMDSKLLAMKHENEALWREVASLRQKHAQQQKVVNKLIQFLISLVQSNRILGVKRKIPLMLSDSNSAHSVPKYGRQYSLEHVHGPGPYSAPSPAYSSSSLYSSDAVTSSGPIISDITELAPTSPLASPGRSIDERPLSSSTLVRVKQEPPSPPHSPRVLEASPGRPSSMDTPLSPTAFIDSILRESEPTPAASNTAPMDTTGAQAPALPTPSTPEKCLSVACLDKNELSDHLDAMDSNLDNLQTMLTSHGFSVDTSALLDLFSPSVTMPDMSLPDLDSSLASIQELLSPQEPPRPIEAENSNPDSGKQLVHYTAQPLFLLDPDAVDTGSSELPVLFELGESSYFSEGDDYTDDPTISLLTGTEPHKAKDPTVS

[2] = target: T3, Polyadenylate-binding protein 1 (Homo sapiens, UniProt P11940); experiment: MLLE binding blockers, Cy5 peptide tracer – biochemical, fluorescence polarization, Cy5-PAM2 peptide, secondary, miRNA deadenylation inhibitor project, dose response (AID 602260); format: functional; settings: read-out: IC50_Mean
T3 sequence (P11940 whole entry, the tested form may be a part): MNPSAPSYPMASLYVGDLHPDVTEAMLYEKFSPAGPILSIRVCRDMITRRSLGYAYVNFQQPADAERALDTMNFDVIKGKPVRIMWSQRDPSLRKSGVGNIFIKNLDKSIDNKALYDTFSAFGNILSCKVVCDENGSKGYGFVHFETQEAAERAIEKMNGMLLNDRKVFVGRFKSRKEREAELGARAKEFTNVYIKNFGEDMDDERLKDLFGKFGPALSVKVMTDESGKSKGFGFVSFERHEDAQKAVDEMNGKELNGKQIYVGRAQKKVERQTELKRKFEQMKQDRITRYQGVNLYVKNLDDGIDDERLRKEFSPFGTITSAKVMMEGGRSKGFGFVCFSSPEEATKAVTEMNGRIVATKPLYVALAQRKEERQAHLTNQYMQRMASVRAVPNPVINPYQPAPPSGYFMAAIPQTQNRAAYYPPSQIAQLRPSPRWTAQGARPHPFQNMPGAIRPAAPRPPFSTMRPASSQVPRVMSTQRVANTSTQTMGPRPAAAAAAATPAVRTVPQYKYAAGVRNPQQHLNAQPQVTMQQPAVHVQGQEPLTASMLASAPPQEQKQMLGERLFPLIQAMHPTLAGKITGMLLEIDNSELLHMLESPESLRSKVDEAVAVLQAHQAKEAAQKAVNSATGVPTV

[3] = target: T3, Polyadenylate-binding protein 1; experiment: MLLE domain peptide-binding blockers, IC50 – biochemical, fluorescence polarization, FITC-PAM2 peptide, dose response (AID 602259); format: functional; settings: read-out: IC50_Mean
Fatty acid synthase [4] = target: T4, Fatty acid synthase (Homo sapiens, UniProt P49327); experiment: inhibition of human FAS-TE enzyme activity – biochemical, endpoint fluorescence intensity, uHTS hits, dose response (AID 624327); format: functional;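 further: fluorescence from hydrolysis of an O-methyl fluorescein acyl ester substrate by the enzyme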
T4 sequence (P49327 whole entry): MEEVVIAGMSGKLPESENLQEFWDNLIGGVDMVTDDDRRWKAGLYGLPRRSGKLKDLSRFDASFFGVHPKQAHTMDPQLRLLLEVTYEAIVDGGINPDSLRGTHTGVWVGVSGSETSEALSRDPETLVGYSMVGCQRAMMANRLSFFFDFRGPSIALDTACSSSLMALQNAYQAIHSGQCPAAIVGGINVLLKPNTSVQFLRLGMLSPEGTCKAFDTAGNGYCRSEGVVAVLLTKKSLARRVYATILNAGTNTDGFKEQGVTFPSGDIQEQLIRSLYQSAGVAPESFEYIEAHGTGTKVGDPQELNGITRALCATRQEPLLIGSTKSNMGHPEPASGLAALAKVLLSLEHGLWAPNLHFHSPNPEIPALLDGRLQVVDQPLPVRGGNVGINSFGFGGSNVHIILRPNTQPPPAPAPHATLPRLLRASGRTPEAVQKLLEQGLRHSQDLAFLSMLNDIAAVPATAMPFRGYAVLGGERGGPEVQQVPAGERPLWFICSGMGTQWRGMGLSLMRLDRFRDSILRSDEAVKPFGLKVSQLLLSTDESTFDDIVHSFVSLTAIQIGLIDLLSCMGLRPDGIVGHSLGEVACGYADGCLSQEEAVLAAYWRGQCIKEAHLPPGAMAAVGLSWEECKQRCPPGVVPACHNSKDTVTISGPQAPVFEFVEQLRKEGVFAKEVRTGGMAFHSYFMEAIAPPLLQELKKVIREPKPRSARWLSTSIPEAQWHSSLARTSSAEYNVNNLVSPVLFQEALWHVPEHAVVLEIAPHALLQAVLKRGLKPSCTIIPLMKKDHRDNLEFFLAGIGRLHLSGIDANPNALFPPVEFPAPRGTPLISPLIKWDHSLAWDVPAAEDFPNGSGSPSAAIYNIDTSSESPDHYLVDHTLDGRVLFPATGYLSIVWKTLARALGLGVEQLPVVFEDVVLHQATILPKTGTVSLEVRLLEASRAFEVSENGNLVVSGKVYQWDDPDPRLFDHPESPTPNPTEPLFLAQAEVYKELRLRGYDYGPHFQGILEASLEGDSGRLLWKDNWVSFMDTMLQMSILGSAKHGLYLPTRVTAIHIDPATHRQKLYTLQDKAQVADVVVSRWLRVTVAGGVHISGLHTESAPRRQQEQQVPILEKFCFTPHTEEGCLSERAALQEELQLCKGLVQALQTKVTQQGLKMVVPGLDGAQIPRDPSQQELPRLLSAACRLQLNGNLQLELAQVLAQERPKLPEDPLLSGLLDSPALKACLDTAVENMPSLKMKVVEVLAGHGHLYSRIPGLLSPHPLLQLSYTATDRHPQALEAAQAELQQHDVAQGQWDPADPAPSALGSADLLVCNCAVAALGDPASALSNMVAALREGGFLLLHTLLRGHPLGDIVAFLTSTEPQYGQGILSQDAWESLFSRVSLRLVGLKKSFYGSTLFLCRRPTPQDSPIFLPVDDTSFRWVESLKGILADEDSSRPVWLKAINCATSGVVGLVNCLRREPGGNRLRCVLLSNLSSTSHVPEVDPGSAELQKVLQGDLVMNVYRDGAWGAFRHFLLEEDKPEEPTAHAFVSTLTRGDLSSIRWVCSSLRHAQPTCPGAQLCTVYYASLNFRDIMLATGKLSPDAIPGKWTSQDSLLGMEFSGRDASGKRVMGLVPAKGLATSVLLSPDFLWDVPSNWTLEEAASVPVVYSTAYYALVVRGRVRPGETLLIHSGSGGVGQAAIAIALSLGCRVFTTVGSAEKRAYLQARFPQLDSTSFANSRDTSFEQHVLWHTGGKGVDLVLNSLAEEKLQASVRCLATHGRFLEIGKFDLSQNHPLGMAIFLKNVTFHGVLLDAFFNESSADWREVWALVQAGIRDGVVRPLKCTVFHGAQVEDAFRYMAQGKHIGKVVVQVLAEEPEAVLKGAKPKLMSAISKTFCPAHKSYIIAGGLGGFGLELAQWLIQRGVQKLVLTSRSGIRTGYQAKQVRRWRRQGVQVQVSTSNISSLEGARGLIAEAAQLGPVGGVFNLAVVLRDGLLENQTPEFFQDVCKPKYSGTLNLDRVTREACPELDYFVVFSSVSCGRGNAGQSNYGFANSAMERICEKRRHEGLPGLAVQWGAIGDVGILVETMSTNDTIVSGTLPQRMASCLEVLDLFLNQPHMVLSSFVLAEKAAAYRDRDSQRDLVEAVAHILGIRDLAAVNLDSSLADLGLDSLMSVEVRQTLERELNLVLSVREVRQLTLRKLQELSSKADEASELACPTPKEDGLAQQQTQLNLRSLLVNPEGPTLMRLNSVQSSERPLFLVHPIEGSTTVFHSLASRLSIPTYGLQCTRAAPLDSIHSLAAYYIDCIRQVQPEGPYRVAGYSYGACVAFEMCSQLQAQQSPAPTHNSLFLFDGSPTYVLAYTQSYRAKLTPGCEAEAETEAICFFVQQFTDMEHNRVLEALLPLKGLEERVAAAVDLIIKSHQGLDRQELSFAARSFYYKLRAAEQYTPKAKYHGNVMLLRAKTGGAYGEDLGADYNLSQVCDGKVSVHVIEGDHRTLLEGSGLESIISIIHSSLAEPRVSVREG

Fatty acid synthase [5] = target: T4, Fatty acid synthase; experiment: inhibition of human FAS-TE enzyme activity – biochemical, kinetic fluorescence intensity, dose response (AID 624326); format: functional;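 further: rate of fluorescence rise from hydrolysis of a fluorogenic O-methyl fluorescein ester substrate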
[6] = target: T5, Ubiquitin-conjugating enzyme E2 N (Homo sapiens, UniProt P61088); format: functional;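 further: Dose-response confirmation in a TR-FRET assay detecting UBC13-driven polyubiquitin chain formation, inhibition measured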
T5 sequence (P61088 whole entry): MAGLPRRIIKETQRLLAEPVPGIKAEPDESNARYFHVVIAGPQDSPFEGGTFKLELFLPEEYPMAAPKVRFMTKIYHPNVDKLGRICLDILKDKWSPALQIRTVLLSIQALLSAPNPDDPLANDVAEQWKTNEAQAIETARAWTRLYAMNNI

[7] = Luminescence Cell-Based Dose Response HTS to Identify Activators of Luciferase Translation or Activity in H4 […] Cells. [Related pubchem assays: 1829 (Project Summary), 1814 (Primary HTS)]; format: functional
[8] = Luminescence Cell-Based Dose Confirmation HTS to Identify Activators of 5'UTR Stem-Loop Driven Alpha-Synuclein mRNA Translation in H4 Neuroglioblastoma Cells. [Related pubchem assays: 1829 (Project Summary), 1814 (Primary HTS)]; format: functional
H4 = experiment: Luminescence Cell-Based Dose Response HTS to Identify Activators of 5'UTR Stem-Loop Driven Prion Protein mRNA Translation in H4 Neuroglioblastoma Cells. [Related pubchem assays: 1829 (Project Summary), 1814 (Primary HTS)]; format: functional; settings: Homo sapiens

For `COc1cc(-c2cc(NC(C)=O)c3ncc(-c4ccccc4)n3c2)cc(OC)c1OC`, the IC50 (H9c2) was > 79 µM (inactive).
For `Cc1c(C2=CCN(S(=O)(=O)c3ccc(Cl)cc3)CC2)c2ccccc2n1C`, the IC50 (Protein skinhead-1) was > 100 µM (inactive).
For `COc1ccccc1NS(=O)(=O)c1cc(NC(=O)Cc2nnc(O)c3ccccc23)ccc1Cl`, the IC50 (H9c2) was 20 µM (active).
For `NS(=O)(=O)c1ccc(CCNC(=O)c2ccc(C#CC3(O)CCCCC3)cc2)cc1`, the IC50 (H9c2) was > 79 µM (inactive) and the EC50 [1] was 7.97 µM (active).
In the case of `O=C(NC1CCCCCC1)C(=S)N1CCOCC1`, the IC50 [2] is reported as > 66 µM (inactive) and the IC50 [3] is reported as > 66 µM (inactive).
With `O=C(CC1C[C@H](C(=O)N2CCOCC2)[C@@]2(CCC3CCCC3)c3[nH]c4ccccc4c3CCN2C1=O)NCc1ccco1` (some centres not stated) the IC50 (Fatty acid synthase [4]) was 1.25 µM (active) and the IC50 (Fatty acid synthase [5]) was 0.778 µM (active).
For `Cc1nn(C)cc1C(C(=O)NC1CCCCC1)N(C(=O)Cc1cccs1)c1ccc(C(C)C)cc1` (configuration not stated), the IC50 (Fatty acid synthase [4]) was 8.86 µM (active) and the IC50 (Fatty acid synthase [5]) was 4.06 µM (active).
For `CC(OC(=O)Cn1[nH]c(=O)c2ccccc2c1=O)C(=O)NC1(C#N)CCCCC1` (configuration not stated), the IC50 (H9c2) was > 79 µM (inactive).
For `O=C(Cc1cccc(C(F)(F)F)c1)OCN1C(=O)c2ccccc2C1=O`, the IC50 (Fatty acid synthase [4]) was 16.8 µM (active) and the IC50 (Fatty acid synthase [5]) was 11.6 µM (active).
With `CCN(CC)S(=O)(=O)c1ccc(-n2cnc3cc(C)c(C)cc32)nc1` the IC50 (Fatty acid synthase [4]) was 11.4 µM (active) and the IC50 (Fatty acid synthase [5]) was 12.8 µM (active).
With `CCC[C@@H](CN1CCC[C@H]1CN1C(N)=NC[C@@H]1Cc1ccccc1)N1C[C@@H](Cc2ccccc2)N(CCc2ccc(Cl)c(Cl)c2)C1=N` the IC50 [6] was > 20 µM (inactive).
For `CCOc1ccc2[nH]c(SCC(=O)OC)c([N+](=O)[O-])c2c1`, the IC50 [2] was > 66 µM (inactive) and the IC50 [3] was 41 µM (inactive).
For `CCN(CC)CCNC(=O)c1cc2c(=O)n(CC)c3ccccc3c2s1`, the IC50 [6] was > 20 µM (inactive).
In the case of `O=C(Nc1ccccc1N1CCCC1)c1cc2ccccc2o1`, the EC50 [7] is reported as 5.42 µM (active), the IC50 [2] is reported as > 66 µM (inactive) and the EC50 [8] is reported as 6.1 µM (active). For the same compound, the EC50 (H4) was 56.5 µM (active) and the IC50 [3] was > 66 µM (inactive).
In the case of `CCOC(=O)C1=C(c2ccccc2)O/C(=C(/C(=O)OC)C(F)(F)F)S1`, the IC50 [6] is reported as > 20 µM (inactive).
With `O=C1CC(NNC(=O)c2ccc(Br)cc2)C(=O)N1` (configuration not stated) the IC50 (Protein skinhead-1) was > 100 µM (inactive).
With `CN(C)CCCNC(=O)CC1C[C@H](C(=O)N2CCOCC2)[C@@]2(CCC3CCCC3)c3[nH]c4ccccc4c3CCN2C1=O` (some centres not stated) the IC50 (Fatty acid synthase [4]) was 2.12 µM (active) and the IC50 (Fatty acid synthase [5]) was 4.82 µM (active).
With `COCCOC(=O)C1=C(C)NC(=O)NC1c1c(Cl)nc2ccccn2c1=O` (configuration not stated) the IC50 [2] was > 66 µM (inactive) and the IC50 [3] was > 66 µM (inactive).
In the case of `CC1(C(=O)NC(=S)N(CCC#N)c2ccccc2)CC1(Cl)Cl` (configuration not stated), the IC50 [2] is reported as > 66 µM (inactive) and the IC50 [3] is reported as > 66 µM (inactive).
In the case of `COCCn1c(CCC(=O)O)nc2c1c(=O)[nH]c(=O)n2CC(C)C`, the IC50 (Protein skinhead-1) is reported as > 100 µM (inactive).
With `CC(=O)Nc1ccc(NC(=S)NC(=O)c2ccc([N+](=O)[O-])cc2)cc1` the IC50 [2] was > 66 µM (inactive) and the IC50 [3] was > 66 µM (inactive).
In the case of `COc1cc2[nH]c(=S)n(CCN3CCCCC3C)c(=O)c2cc1OC` (configuration not stated), the IC50 (Protein skinhead-1) is reported as > 100 µM (inactive).
